The values below come from patent US20160101146A1, “TREATMENT FOR INFECTION WITH HEPATITIS B VIRUS ALONE OR IN COMBINATION WITH HEPATITIS DELTA VIRUS AND ASSOCIATED LIVER DISEASES” (NOVARTIS AG, priority 2011, published 2016).

Data set [1] deals with Hepatitis B virus. The following applies: at one year, cited from earlier work; for rate of undetectable HBV DNA: HBeAg-negative patients with CHB; for virological treatment response rate (undetectable serum HBV DNA): HBeAg-positive patients.
Data set [2] concerns Hepatitis B virus replication. Description: Secreted HBV DNA quantitation in cell culture supernatants by real-time PCR. It counts as cell-based, Hepatitis B virus (human hepatoma cell lines). As for the experimental part:
(§1) HepG2215 cell line, derived from HepG2 cells, was stably transfected with HBV DNA and supported full HBV replication with production of infectious virions and HBsAg. HepG2215 cells were cultured in 12-well plates, as described previously (7, 8), for 7 days prior to adding the cyclophilin inhibitors.
(§2) The cells were treated with 0.25, 1.0 or 5.0 micrograms/mL of NIM811 or DEB025; cells and supernatants were harvested separately at baseline, 6, 24, 48 and 72 hours after the addition of NIM811 or DEB025, respectively.
(§3) HuH-7 cells were transfected with a plasmid containing a pBlueScript KS(+) vector with a 1.5 HBV DNA genomes of subtype adw2 was used. Subconfluent HuH-7 cells were transfected with 5 μg of plasmid DNA per 60-mm-diameter dish using 10 μl of Superfect reagent (Qiagen, Crawley, UK). The supernatants were replaced 18 h posttransfection with medium supplemented with 10% FCS, and the cells were cultured for 3 days, as described (7).
(§4) Stably transfected (HepG2215) and transiently transfected (HUH-7) cells, producing full HBV virions and HBsAg particles, were treated with a range of Alisporivir concentrations (0.25, 1.0 5.0 or 20 micrograms/ml) alone, telbivudine alone, or combinations of Alisporivir and telbivudine. To determine the involvement of individual cyclophilins, HepG2215 cells were transfected with siRNA-specific for cyclophilin (Cyp) A, C or D and additionally treated with Alisporivir. Cytoplasmic extracts and supernatants were harvested at baseline; 24, 48 and 72 hours post-treatment. The kinetics of antiviral activity was assessed by quantitation of intracellular and secreted HBV-DNA (real-time qPCR) and HBsAg levels (ELISA).
(§5) HBV replication was assessed by quantitation of both viral nucleocapsid-associated HBV DNA (cytoplasmic) and the HBV DNA levels in cell culture supernatants, as described previously (8,9). Nucleocapsid HBV DNA was extracted and quantitated by TaqMan real-time PCR (ABI Prism 7700). Intracellular HBV DNA was normalized with b-actin as a house-keeping gene. Secreted HBV DNA was extracted with QIAmp DNA minikit (Qiagen, Sussex, UK) and also quantitated by TaqMan. The sensitivity of HBV DNA quantitation was verified in each run with serial dilutions of HBV DNA plasmid, as well as the EuroHep HBV DNA standard, as described (9,10).
(Real-time PCR tracks product formation cycle by cycle.)

Data set [3] deals with Hepatitis B virus replication. Put plainly: Intracellular (cytoplasmic, nucleocapsid-associated) HBV DNA quantitation by real-time PCR in HBV-transfected hepatoma cells. The settings on record: for reduction of cellular HBV DNA: FIG. 6. Type of data set: cell-based, Hepatitis B virus (human hepatoma cell lines). As for the experimental part: as §1, §2, §3, §4, §5
The test system of data set [4] is Hepatitis B virus replication. Put plainly: Alisporivir treatment of HepG2215 cells silenced for CypA, C or D by siRNA; HBV-DNA and HBsAg levels. It counts as cell-based, Hepatitis B virus (human hepatoma cell line). The settings on record: greater effects in CypC or CypD silenced cells than CypA silenced cells (p<0.001). The procedure: To assess the role of cyclophilin A in HBV replication, HepG2215 cells were transfected with siRNA for cyclophilin A and incubated with medium only or with the addition of NIM811 or DEB025. Similarly, the role of Cyclophilin B, C and D in HBV and HDV replication will be evaluated by siRNA specific for CypB, C and D.
as §4, with “Cytoplasmic extracts and supernatants were harvested at baseline; 24, 48 and 72 hours post-treatment.” left out
HepG2215 cells were seeded with the siRNAs (Dharmacon Inc., Lafayette, Colo.) at 50% density and incubated for 48 h. […] Total DNA was extracted from the samples and HBV DNA was quantitated by real time PCR, as above. […] The RNA was reverse transcribed with Quantitect Reverse transcription kit (Qiagen) and cDNA quantitated with SYBR Green Quantitect kit using Quantitect primers (Qiagen, Sussex, UK).

`C[C@H](Cn1cnc2c(N)ncnc21)OCP(=O)(O)O` [tenofovir]: in data set [1], the “rate of undetectable HBV DNA” value was 91% and the “virological treatment response rate (undetectable serum HBV DNA)” value (“virological treatment response rate” below) was 74%.

As for `C=C1[C@H](CO)[C@@H](O)C[C@@H]1n1cnc2c(=O)[nH]c(N)nc21` [entecavir], in data set [1], the “rate of undetectable HBV DNA” value was 90% and the “virological treatment response rate” value was 67%.

For `C/C=C/C[C@@H](C)[C@@H](O)[C@H]1C(=O)N[C@@H](CC)C(=O)N(C)[C@H](C)C(=O)N(CC)[C@@H](C(C)C)C(=O)N[C@@H](C(C)C)C(=O)N(C)[C@@H](CC(C)C)C(=O)N[C@@H](C)C(=O)N[C@H](C)C(=O)N(C)[C@@H](CC(C)C)C(=O)N(C)[C@@H](CC(C)C)C(=O)N(C)[C@@H](C(C)C)C(=O)N1C` [Alisporivir], the “reduction of secreted HBV-DNA” value in data set [2] (HepG2215 and HUH-7 cells, dose-dependent (0.25-20 micrograms/ml), compared with untreated controls, p<0.001) came to 63%. Also, in data set [2] (HepG2215 cells, 5.0 micrograms/mL, FIG. 2), the “effect in reducing HBV DNA levels in cell culture supernatants compared with NIM811” value was “greater effect”. Further, the “reduction of secreted HBV DNA” value in data set [2] (HepG2215 cells, FIG. 5) was “reductions”. In addition, in data set [2] (transiently transfected Huh7 or stably transfected HepG2215 cells, FIG. 3), the “reduction of secreted HBV DNA” value is recorded as “dose-dependent reduction”. For the same molecule, the “reduction of intracellular HBV-DNA” value in data set [3] (HepG2215 and HUH-7 cells, dose-dependent (0.25-20 micrograms/ml), compared with untreated controls, p=0.004) was found to be 70%. For the same molecule, in data set [3] (HepG2215 cells, 5 micrograms/mL, 72 h), the “reduction of intracellular HBV DNA compared with NIM811” value is given as “greater than the reduction observed with NIM811”. The “reduction of intracellular HBV DNA levels” value in data set [3] (HepG2215 cells, 5 micrograms/mL, 72 hours, FIG. 1) is given as 10 fold. Further, the “reduction of cellular HBV DNA” value in data set [3] (HepG2215 cells) was “reductions”. Besides, the “reduction of cytoplasmic HBV DNA” value in data set [3] (Huh7 and HepG2215 cells, FIG. 4) is “dose dependent reductions”. Also, in data set [4], the “HBV-DNA levels in Cyp-silenced cells” value is on record as “further reduced” and the “HBsAg levels in Cyp-silenced cells” value is “further reduced”.

For `Cc1cn([C@@H]2C[C@@H](O)[C@H](CO)O2)c(=O)[nH]c1=O` [telbivudine, reference compound], in data set [1], the “rate of undetectable HBV DNA” value is on record as 88% and the “virological treatment response rate” value is on record as 60%. Further, the “reduction of secreted HBV DNA” value in data set [2] (HepG2215 cells, FIG. 5) is reported as “reductions”. Further, the “reduction of cellular HBV DNA” value in data set [3] (HepG2215 cells) is “reductions”.
